Values quoted from earlier work in US6455580B1, “Method and composition for antiviral therapy” (F&S Group, Inc., priority 1994, dated 2002).

What was measured:
[1] = not given; remark: listed apart in the source
[2] = animal studies; oleuropein itself or as component of plant tissue extracts

Question: Which “antiviral properties in vitro” value does the source give for COC(=O)C1=CO[C@@H](C)[C@@H](C=O)C1CC(=O)O (single isomer, unassigned; (-)) [(−)-elenolic acid] here?
Answer: Its value is “antiviral properties in vitro”.

Question: What about the “antiviral activity in vivo” value [1] of the same molecule?
Answer: Its value is “little, if any, activity in vivo”.

Question: Which “hypoglycemic and cardiovascular effects” value [2] does the source give for C/C=C1/[C@H](O[C@@H]2O[C@H](CO)[C@@H](O)[C@H](O)[C@H]2O)OC=C(C(=O)OC)[C@H]1CC(=O)OCCc1ccc(O)c(O)c1 [oleuropein] here?
Answer: Its value is “exhibit both hypoglycemic and cardiovascular effects”.
